{
  "source": "patent US20230331690A1",
  "about": "“THC DERIVATIVES, ORAL DOSAGE FORMS COMPRISING SAME, USES THEREOF FOR TREATING DISEASES AND DISORDERS AND SYNTHESIS THEREOF” (BAR-ILAN UNIVERSITY, priority 2020, published 2023)",
  "key": {"[1]": {"assay": "Pharmacokinetics, liver samples (Example 17)", "format": "in vivo, mice", "conditions": "label = analyte; for Component in the liver, Average: n=3"}, "[2]": {"assay": "Persistence over time, blood samples (Example 18)", "format": "in vivo, mice", "conditions": "label = analyte", "experimental": "(§1) Blood samples from each mouse were collected at each time point for the pharmacokinetics tests. For 6 h after administrating of all tested drugs, and after testing their WRL on the hot plate, half the mice (n=3) of each group were sacrificed, and the liver and brain of each animal were taken for pharmacokinetics tests. From the remaining mice, blood samples were acquired at 12 h after administration for pharmacokinetics tests. At 24 h after drug administration, and after checking the WRL again, second half of each group of mice were sacrificed, and the liver and brain of each animal were taken for pharmacokinetics tests."}, "[3]": {"assay": "Pharmacokinetics, blood samples (Example 17)", "conditions": "0.5 h after i.p. injection of THC or THC-d5, label = analyte; for Component in the blood, Average: n=6 (THC-d5 n=5)", "experimental": "The pharmacokinetics of 9-CD3-(8-D2)-THC compared to natural THC was evaluated using both intraperitoneal i.p. injection and an oral gavage administration for each material. The mice were divided into four groups containing 6 mice (24 mice total). For each group of mice, a blood sample was withdrawn at baseline (t=0), and half-hour intervals (t=0.5, 2 and 5 h) after administration of the drug. Three mice, half of each group, were euthanized with CO2 after 5 h and their organs (brain and liver) were collected. From the second half of each group, another blood sample was withdrawn 24 h after administration, and then these animals were euthanized and the brain and liver were collected for analysis."}, "[4]": {"assay": "Persistence over time, liver samples postmortem (Example 18)", "format": "in vivo, mice", "experimental": "as §1\n(§2) All the results of the brain and liver samples, which were taken postmortem 6 h or 24 h after administration (n=3) are summarized in Tables 12-13."}, "[5]": {"assay": "Persistence over time, brain samples postmortem (Example 18)", "format": "in vivo, mice", "conditions": "8 mg/kg administered, died at 6 h; number in brackets = mice with a value", "experimental": "as §1, §2"}, "[6]": {"conditions": "5 h after oral gavage administration of THC or THC-d5"}, "[7]": {"conditions": "24 h after i.p. injection of THC or THC-d5"}, "[8]": {"conditions": "4 mg/kg administration of THC or THC-d5, Time 0.5 h"}, "[9]": {"conditions": "4 mg/kg administration, Time 3 h"}, "[10]": {"conditions": "8 mg/kg administration of THC or THC-d5, Time 0.5 h"}, "[11]": {"conditions": "8 mg/kg administration, Time 3 h"}, "[12]": {"conditions": "2 mg/kg administered, died at 6 h"}, "[13]": {"conditions": "4 mg/kg administered, died at 6 h"}, "[14]": {"conditions": "8 mg/kg administered, died at 6 h"}},
  "data": [
    {"smiles": "CCCCCc1cc(O)c2c(c1)OC(C)(C)[C@@H]1CCC(C(=O)O)=C[C@@H]21", "note": "[11-COOH-THC, 11-nor-9-carboxy-THC]", "values": [
      {"measurement": "Component in the liver, mouse 1", "setting": "[1]; [6]", "result": 38.89, "unit": "ng/mL"},
      {"measurement": "Component in the liver, mouse 2", "setting": "[1]; [6]", "result": 33.82, "unit": "ng/mL"},
      {"measurement": "Component in the liver, mouse 3", "setting": "[1]; [6]", "result": 25.34, "unit": "ng/mL"},
      {"measurement": "Component in the liver, Average", "setting": "[1]; [6]", "result": 32.68, "unit": "ng/mL"},
      {"measurement": "Component in the liver, mouse 3", "setting": "[1]; [7]", "result": 1.49, "unit": "ng/mL"},
      {"measurement": "Average results, blood samples", "setting": "[2]; [8]", "result": 11.87, "unit": "ng/mL"},
      {"measurement": "Average results, blood samples", "setting": "[2]; [9]", "result": "1.39 (4/4) ng/mL"},
      {"measurement": "Average results, blood samples", "setting": "[2]; 4 mg/kg administration, Time 6 h", "result": "0.41 (2/2) ng/mL"},
      {"measurement": "Average results, blood samples", "setting": "[2]; [10]", "result": 15.85, "unit": "ng/mL"},
      {"measurement": "Average results, blood samples", "setting": "[2]; [11]", "result": 3.44, "unit": "ng/mL"},
      {"measurement": "Average results, blood samples", "setting": "[2]; 8 mg/kg administration, Time 6 h", "result": 3.57, "unit": "ng/mL"},
      {"measurement": "Average results, blood samples", "setting": "[2]; 8 mg/kg administration, Time 12 h (3 mice)", "result": 1.89, "unit": "ng/mL"},
      {"measurement": "Component in the blood, mouse 1", "setting": "[3]", "result": 30.26, "unit": "ng/mL"},
      {"measurement": "Component in the blood, mouse 2", "setting": "[3]", "result": 22.27, "unit": "ng/mL"},
      {"measurement": "Component in the blood, mouse 3", "setting": "[3]", "result": 20.76, "unit": "ng/mL"},
      {"measurement": "Component in the blood, mouse 4", "setting": "[3]", "result": 32.18, "unit": "ng/mL"},
      {"measurement": "Component in the blood, mouse 5", "setting": "[3]", "result": 25.30, "unit": "ng/mL"},
      {"measurement": "Component in the blood, mouse 6", "setting": "[3]", "result": 19.81, "unit": "ng/mL"},
      {"measurement": "Component in the blood, Average", "setting": "[3]", "result": 25.10, "unit": "ng/mL"},
      {"measurement": "Average results for 3 mice (Table 13, liver)", "setting": "[4]; [12]", "result": 3.83, "unit": "ng/g"},
      {"measurement": "Average results for 3 mice (Table 13, liver)", "setting": "[4]; [13]", "result": 46.06, "unit": "ng/g"},
      {"measurement": "Average results for 3 mice (Table 13, liver)", "setting": "[4]; 4 mg/kg administered, died at 24 h, number in brackets = mice with a value", "result": "2.89 (1) ng/g"},
      {"measurement": "Average results for 3 mice (Table 13, liver)", "setting": "[4]; [14]", "result": 60.95, "unit": "ng/g"},
      {"measurement": "Average results for 3 mice - brain samples", "setting": "[5]", "result": "2.04 (1) ng/g"}
    ]},
    {"smiles": "CCCCCc1cc(O)c2c(c1)OC(C)(C)[C@@H]1CCC(CO)=C[C@@H]21", "note": "[11-OH-THC]", "values": [
      {"measurement": "Component in the liver, mouse 1", "setting": "[1]; [6]", "result": 6.56, "unit": "ng/mL"},
      {"measurement": "Component in the liver, mouse 2", "setting": "[1]; [6]", "result": 23.90, "unit": "ng/mL"},
      {"measurement": "Component in the liver, mouse 3", "setting": "[1]; [6]", "result": 2.83, "unit": "ng/mL"},
      {"measurement": "Component in the liver, Average", "setting": "[1]; [6]", "result": 11.10, "unit": "ng/mL"},
      {"measurement": "Component in the liver, mouse 1", "setting": "[1]; [7]", "result": 0.37, "unit": "ng/mL"},
      {"measurement": "Component in the liver, mouse 2", "setting": "[1]; [7]", "result": 3.12, "unit": "ng/mL"},
      {"measurement": "Component in the liver, mouse 3", "setting": "[1]; [7]", "result": 1.46, "unit": "ng/mL"},
      {"measurement": "Average results, blood samples", "setting": "[2]; [8]", "result": 1.54, "unit": "ng/mL"},
      {"measurement": "Average results, blood samples", "setting": "[2]; [9]", "result": "0.18 (2/2) ng/mL"},
      {"measurement": "Average results, blood samples", "setting": "[2]; [10]", "result": 1.96, "unit": "ng/mL"},
      {"measurement": "Average results, blood samples", "setting": "[2]; [11]", "result": 0.44, "unit": "ng/mL"},
      {"measurement": "Component in the blood, mouse 1", "setting": "[3]", "result": 2.40, "unit": "ng/mL"},
      {"measurement": "Component in the blood, mouse 2", "setting": "[3]", "result": 2.44, "unit": "ng/mL"},
      {"measurement": "Component in the blood, mouse 3", "setting": "[3]", "result": 2.10, "unit": "ng/mL"},
      {"measurement": "Component in the blood, mouse 4", "setting": "[3]", "result": 3.43, "unit": "ng/mL"},
      {"measurement": "Component in the blood, mouse 5", "setting": "[3]", "result": 2.27, "unit": "ng/mL"},
      {"measurement": "Component in the blood, mouse 6", "setting": "[3]", "result": 2.37, "unit": "ng/mL"},
      {"measurement": "Component in the blood, Average", "setting": "[3]", "result": 2.50, "unit": "ng/mL"},
      {"measurement": "Average results for 3 mice (Table 13, liver)", "setting": "[4]; [12]", "result": 8.76, "unit": "ng/g"},
      {"measurement": "Average results for 3 mice (Table 13, liver)", "setting": "[4]; [13]", "result": 41.89, "unit": "ng/g"},
      {"measurement": "Average results for 3 mice (Table 13, liver)", "setting": "[4]; [14]", "result": 22.94, "unit": "ng/g"},
      {"measurement": "Average results for 3 mice (Table 13, liver)", "setting": "[4]; 8 mg/kg administered, died at 24 h, number in brackets = mice with a value", "result": "5.57 (1) ng/g"},
      {"measurement": "Average results for 3 mice - brain samples", "setting": "[5]", "result": "5.2 (2) ng/g"}
    ]}
  ]
}
